The target in one data set is T1, serotonin transporter (Rattus norvegicus, UniProt P31652).
T1 construct: Cerebral cortices from male Wistar rats (150-200 g) are homogenized; from tissue; host or cells: rat cerebral cortex synaptosomes (P2 pellet)
Nature of the data set: In vitro inhibition of 3H-5-hydroxytryptamine (3H-5-HT, serotonin) uptake in cortical synaptosomes. Type of data set: biochemical. The following applies: cortical synaptosomes from male Wistar rats; 3H-5-HT 1 nM; 30 min at 37° C. On the procedure:
The activity of the serotonin transporter integral protein can be measured in vitro by synaptosomal uptake of ^3H-5-hydroxytryptamine.
Preparations are performed at 0-4° C. unless otherwise indicated. […] Monoamine oxidase activity will be inhibited in the presence of pargyline. The homogenate is centrifuged at 1000×g for 10 min. The resulting supernatant is then centrifuged at 27,000×g for 50 min and the supernatant is discarded.
Non-specific uptake is determined using citalopram (1 μM, final concentration). After incubation the samples are poured directly onto Whatman GF/C glass fibre filters under suction. The filters are then washed three times with 5 ml of ice-cold 0.9% (w/v) NaCl solution. The amount of radioactivity on the filters is determined by conventional liquid scintillation counting. Specific uptake is calculated as the difference between total uptake and non-specific uptake.

The target in data set [1] is T2, nAChRs comprised of α4 and β2 subunits (Rattus norvegicus, UniProt P09483+P12390).
T2 construct: Cerebral corticies from male Wistar rats (150-250 g) are homogenized; from tissue; host or cells: rat cerebral cortex membrane homogenate
T2 sequence (P12390 25-500): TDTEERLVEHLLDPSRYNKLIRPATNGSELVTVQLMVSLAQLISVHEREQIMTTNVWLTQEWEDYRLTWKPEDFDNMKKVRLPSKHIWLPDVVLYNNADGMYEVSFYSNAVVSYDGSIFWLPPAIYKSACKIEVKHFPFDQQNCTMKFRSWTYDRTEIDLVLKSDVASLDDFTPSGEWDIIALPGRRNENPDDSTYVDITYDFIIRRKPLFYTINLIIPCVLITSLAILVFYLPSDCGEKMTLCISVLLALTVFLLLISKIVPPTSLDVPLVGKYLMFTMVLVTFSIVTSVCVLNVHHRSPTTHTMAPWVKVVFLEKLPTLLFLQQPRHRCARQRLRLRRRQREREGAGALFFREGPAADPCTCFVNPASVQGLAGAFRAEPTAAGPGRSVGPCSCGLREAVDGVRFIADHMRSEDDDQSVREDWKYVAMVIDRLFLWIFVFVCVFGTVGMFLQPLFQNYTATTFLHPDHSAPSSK
T2 sequence (P09483 31-630): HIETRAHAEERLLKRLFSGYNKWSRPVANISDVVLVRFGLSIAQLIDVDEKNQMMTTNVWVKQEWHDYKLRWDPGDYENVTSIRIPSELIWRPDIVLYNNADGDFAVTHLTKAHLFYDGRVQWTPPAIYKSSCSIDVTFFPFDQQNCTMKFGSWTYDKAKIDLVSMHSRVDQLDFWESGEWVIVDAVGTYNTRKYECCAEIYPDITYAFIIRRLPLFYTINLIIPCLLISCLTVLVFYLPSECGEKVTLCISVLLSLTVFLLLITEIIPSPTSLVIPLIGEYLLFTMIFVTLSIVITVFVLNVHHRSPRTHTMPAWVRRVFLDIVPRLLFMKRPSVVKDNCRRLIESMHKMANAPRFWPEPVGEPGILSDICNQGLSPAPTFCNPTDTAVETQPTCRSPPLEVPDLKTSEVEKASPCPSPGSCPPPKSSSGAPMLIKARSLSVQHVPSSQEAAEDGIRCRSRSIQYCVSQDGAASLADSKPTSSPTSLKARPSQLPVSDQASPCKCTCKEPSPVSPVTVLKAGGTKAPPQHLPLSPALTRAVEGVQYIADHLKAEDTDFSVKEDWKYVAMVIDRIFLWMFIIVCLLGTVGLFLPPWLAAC
Kind of data set: In vitro inhibition of 3H-cytisine binding. Conditions: cerebral cortex homogenate from male Wistar rats; 3H-cytisine 1 nM; 90 min at 2° C. On the procedure:
The predominant subtype with high affinity for nicotine is comprised of α4 and β2 subunits. nAChRs of the latter type can selectively be labelled by the nicotine agonist ^3H-cytisine.
Cerebral corticies from male Wistar rats (150-250 g) are homogenized for 20 sec in 15 ml Tris, HCl (50 mM, pH 7.4) containing 120 mM NaCl, 5 mM KCl, 1 mM MgCl2 and 2.5 mM CaCl2 using an Ultra-Turrax homogenizer. The homogenate is centrifuged at 27,000×g for 10 min. The supernatant is discarded and the pellet is resuspended in fresh buffer and centrifuged a second time. The final pellet is resuspended in fresh buffer (35 ml per g of original tissue) and used for binding assays.
Aliquots of 500 μl homogenate are added to 25 μl of test solution and 25 μl of ^3H-cytisine (1 nM, final concentration), mixed and incubated for 90 min at 2° C. Non-specific binding is determined using (−)-nicotine (100 μM, final concentration). After incubation the samples are added 5 ml of ice-cold buffer and poured directly onto Whatman GF/C glass fibre filters under suction and immediately washed with 2×5 ml ice-cold buffer. The amount of radioactivity on the filters is determined by conventional liquid scintillation counting. Specific binding is total binding minus non-specific binding.

Structures can show the parent of a compound that is named as a salt.

T1 sequence (P31652 whole entry): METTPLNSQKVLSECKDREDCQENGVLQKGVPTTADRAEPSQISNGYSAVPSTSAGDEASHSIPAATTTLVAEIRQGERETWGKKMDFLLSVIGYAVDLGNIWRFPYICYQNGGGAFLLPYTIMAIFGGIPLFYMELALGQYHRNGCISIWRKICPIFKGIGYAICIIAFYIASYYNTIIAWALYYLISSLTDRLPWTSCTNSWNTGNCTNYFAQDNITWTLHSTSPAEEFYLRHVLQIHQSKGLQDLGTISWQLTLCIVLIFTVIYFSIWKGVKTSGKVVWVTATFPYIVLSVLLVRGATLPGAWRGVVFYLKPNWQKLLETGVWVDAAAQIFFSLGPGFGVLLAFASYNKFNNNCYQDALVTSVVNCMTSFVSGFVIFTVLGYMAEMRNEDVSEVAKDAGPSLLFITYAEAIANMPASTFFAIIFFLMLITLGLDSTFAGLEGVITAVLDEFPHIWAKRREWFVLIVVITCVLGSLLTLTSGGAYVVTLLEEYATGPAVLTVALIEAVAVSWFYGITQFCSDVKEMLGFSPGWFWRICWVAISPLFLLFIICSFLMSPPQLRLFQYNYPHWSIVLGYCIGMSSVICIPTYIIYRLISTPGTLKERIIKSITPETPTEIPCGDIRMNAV

As usually defined, the melting point is the temperature, or range, at which the solid turns liquid. Compound `Clc1ccc(N2CC3CC(CN(Cc4ccccc4)C3)C2)nn1` (as salt: fumaric acid salt) came in with a melting point of 204 to 205 °C.

Compound `Clc1cncc(N2CC3CC(CN(Cc4ccccc4)C3)C2)n1` (as salt: fumaric acid salt) had a melting point of 183.1 to 183.3 °C.

`CN1CC2CC(C1)CN(c1ccc(-c3ccccc3)nn1)C2` (as salt: fumaric acid salt): the melting point lay within 213.9 to 220.8 °C.

`C=CCN1CC2CC(C1)CN(c1ccc(-c3ccccc3)nn1)C2` (as salt: fumaric acid salt) displayed a melting point of 183.5 to 187.6 °C.

In turn, `c1ccc(CN2CC3CC(C2)CN(c2ccc4ccccc4n2)C3)cc1` (as salt: fumaric acid salt) [Compound C3, 3-Benzyl-7-(2-quinolinyl)-3,7-diazabicyclo-[3.3.1]-nonane] showed a melting point of 56.1 to 56.8 °C.

For the compound `O=[N+]([O-])c1ccc2nc(N3CC4CC(CN(Cc5ccccc5)C4)C3)ccc2c1` (as salt: fumaric acid salt) [Compound C6, 3-Benzyl-7-(6-nitro-2-quinolinyl)-3,7-diazabicyclo-[3.3.1]-nonane], the melting point lay in the range of 168 to 172 °C.

Take `Clc1ccc(N2CC3CNCC(C3)C2)nn1` (as salt: fumaric acid salt) [Compound F1, 3-H-7-(6-Chloro-3-pyridazinyl)-3,7-diazabicyclo-[3.3.1]-nonane]: the melting point lay in the range of 195.5 to 196.5 °C.

In the case of `Clc1cncc(N2CC3CNCC(C3)C2)n1` (as salt: fumaric acid salt) [Compound F2, 3-H-7-(6-Chloro-2-pyrazinyl)-3,7-diazabicyclo-[3.3.1]-nonane], the melting point was in the range of 180.3 to 181.9 °C.

In general, IC50 refers to the concentration that inhibits the measured activity by half. Higher therefore signals a need for much substance. In turn, `c1ccc(CN2CC3CC(C2)CN(c2ccc4ccccc4n2)C3)cc1` [Compound C3, 3-Benzyl-7-(2-quinolinyl)-3,7-diazabicyclo-[3.3.1]-nonane] showed an IC50 against serotonin transporter of 22 nM.

For the compound `O=[N+]([O-])c1ccc2nc(N3CC4CC(CN(Cc5ccccc5)C4)C3)ccc2c1` [Compound C6, 3-Benzyl-7-(6-nitro-2-quinolinyl)-3,7-diazabicyclo-[3.3.1]-nonane], on serotonin transporter, the IC50 is 5.7 nM.

`Clc1ccc(N2CC3CNCC(C3)C2)nn1` [Compound F1, 3-H-7-(6-Chloro-3-pyridazinyl)-3,7-diazabicyclo-[3.3.1]-nonane] registered a 50% inhibitory concentration (IC50) in data set [1] of 3 nM.

On to `Clc1cncc(N2CC3CNCC(C3)C2)n1` [Compound F2, 3-H-7-(6-Chloro-2-pyrazinyl)-3,7-diazabicyclo-[3.3.1]-nonane], for which the IC50 in data set [1] came out at 3.4 nM.

For the origin of these results see patent publication US20040147505A1, “Novel heteroaryl-diazabicyclo alkanes as cns-modulators” (priority 2001, published 2004).
